From patent US10537516B2, “Composition for treating skin pigmentation and related methods” (Access Business Group International LLC, priority 2017, dated 2020) come the findings set out here.

Assay [1] concerns B16-F10 cells. Kind of assay: CellTiter-Glo (CTG) Luminescent Cell Viability Assay (cell toxicity). It is filed as cell-based, Mus musculus (mouse). Particulars: for IC50: Mus musculus, read-out: IC50 cellular toxicity, skin treatment compound/plant extract.
Description: The toxicity of the skin treatment compounds and plant extracts was evaluated using the CellTiter-Glo® (CTG) Luminescent Cell Viability Assay from Promega Corporation. The assay determines the number of viable cells in culture based on quantitation of the ATP present, which is indicative of the presence of metabolically active cells.
The CellTiter-Glo® reagent was added to the cells and the luminescence was obtained according to the assay instructions provided by Promega Corporation. The IC50 was calculated for each skin treatment compound or plant extract and the corresponding positive control.
Assay [2] has as its system B16-F10 cells. Description: Melanin synthesis inhibition in B16-F10 cells. It is filed as cell-based, Mus musculus (mouse). To be noted: 100 μg/mL, 72 hours, average of two wells. The method, then:
(§1) The effects of the present skin treatment compounds and plant extracts were evaluated in vitro using a B16-F10 (ATCC# CRL-6475) cell model. The B16-F10 cell model is a Mus musculus (mouse) melanoma skin cell line. The skin treatment compounds and plant extracts were evaluated for cell toxicity, inhibition of melanin synthesis, inhibition of tyrosinase enzyme activity, and elimination of existing melanin in B16-F10 cells. Tables 1 and 2 below list the 5 skin treatment compounds and 17 skin treatment plant extracts evaluated, respectively.
The ability of the skin treatment compounds and plant extracts to inhibit melanin synthesis was evaluated. Melanin is the pigment in skin cells that is responsible for coloring of the skin and various pigmentation disorders, such as age spots and freckles. Inhibition of melanin synthesis may result in lightening of the skin color and/or inhibit further darkening of the skin color. Arbutin is a conventional plant-derived compound used in skin lightening treatments and was therefore selected for use as a positive control.
B16-F10 cells were trypsinized using Trypsin-EDTA (GIBCO Cat. #25200-072) and cell density was determined. The cell slurry was diluted to a concentration of 18,000 cells per milliliter (mL) in a growth media containing RPMI 1640 (GIBCO Cat. #22400-089) supplemented with fetal bovine serum (GIBCO Cat. #10099-141). The diluted cell slurry was dispensed into the wells of a 24 well cell culture plate (BD Falcon Cat. #353047) at 1 mL per well (18,000 cells/well). The cells were incubated overnight at 37° C. and 5% CO2 in humid conditions.
The plated cells were treated by preparing a 200× dilution of each skin lightening compound, plant extract, and arbutin (i.e., the positive control; Sigma Cat. #A4256) in 100% dimethyl sulfoxide (DMSO; Sigma Cat. #D2650). 5 μL of the 200× dilution was added to each well. The treated cells were incubated for 72 hours at 37° C. and 5% CO2 in humid conditions. The skin lightening compounds and plant extracts were evaluated at concentrations of 0 (untreated), 10, 50, and 100 μg/mL. Arbutin was evaluated at concentrations of 0 (untreated), 25, 125, and 250 μg/mL.
When the treatment period was completed, the medium from each well was discarded and the cells were washed once with 1 mL per well of DPBS (Dulbecco's Phosphate-Buffered Saline; Biosera Cat. #LM-S2041). […] The UV absorbance of each well was determined using a plate reader with the primary wave length set to 400 nm.
Melanin synthesis inhibition was determined using the UV absorbance at 400 nm according to the following equation: % Inh=(Max signal−Compound signal)/(Max signal−Min signal)×100

For assay [3], the system named is B16-F10 cells. Kind of assay: Melanin elimination in forskolin/8-MOP pre-treated B16-F10 cells. The assay is classed as cell-based, Mus musculus (mouse). Particulars: 72 hours, B16-F10 cells pre-treated with forskolin and 8-MOP; for % Melanin Elimination, skin treatment compound/plant extract: 100 μg/mL, average of two wells. As to the method:
as §1
The ability of the skin treatment compounds and plant extracts to eliminate existing melanin within skin cells was evaluated. Melanin is the pigment in skin cells that is responsible for coloring of the skin and various pigmentation disorders, such as age spots and freckles. Elimination of existing melanin inside a cell may result in lightening of the skin color and/or inhibit further darkening of the skin color. […]
B16-F10 cells were trypsinized using Trypsin-EDTA and cell density was determined. The cell slurry was diluted to a concentration of 18,000 cells per milliliter (mL) in a growth media containing RPMI 1640 supplemented with fetal bovine serum. The diluted cell slurry was dispensed into the wells of a 24 well cell culture plate at 1 mL per well (18,000 cells/well). The cells were incubated overnight at 37° C. and 5% CO2 in humid conditions.
Following the overnight incubation, the medium was discarded and replaced with 1 mL per well of growth media including 50 μM forskolin (Sigma Cat. #F6886) and 10 μM 8-Methoxypsoralen (8-MOP; Alfa Aesar Cat. #A17108). The cells were then incubated for 72 hours at 37° C. and 5% CO2 in humid conditions.
The medium in each well was discarded and replaced with 1 mL/well. 5 μL of the 200× dilution was added to each well. The treated cells were incubated for 72 hours at 37° C. and 5% CO2 in humid conditions. The skin lightening compounds and plant extracts were evaluated at concentrations of 0 (untreated), 10, 50, and 100 μg/mL. […]
When the treatment period was completed, the medium from each well was discarded and the cells were washed once with 1 mL per well of DPBS. The DPBS wash was removed and 150 μL of 1N sodium hydroxide was added to each well for 30 minutes while the cells were incubated at 80° C. to lyse the cells. Next, 145 μL from each well was transferred to a UV plate and the remaining 5 μL was tested to determine the protein concentration. The UV absorbance of each well was determined using a plate reader with the primary wave length set to 400 nm.
Melanin elimination was determined using the UV absorbance at 400 nm according to the following equation: % Inh=(Max signal−Compound signal)/(Max signal−Min signal)×100
Where “% Inh” is the percent of melanin eliminated from the cell, the “Max signal” is the UV absorption for cells treated with forskolin and 8-MOP, and the “Min signal” is the UV absorption of untreated cells.

The target in another assay is T1, tyrosinase enzyme (Mus musculus, UniProt P11344).
T1 construct: endogenous in cells; host or cells: B16-F10 (ATCC# CRL-6475) mouse melanoma cells
T1 sequence (P11344 19-533): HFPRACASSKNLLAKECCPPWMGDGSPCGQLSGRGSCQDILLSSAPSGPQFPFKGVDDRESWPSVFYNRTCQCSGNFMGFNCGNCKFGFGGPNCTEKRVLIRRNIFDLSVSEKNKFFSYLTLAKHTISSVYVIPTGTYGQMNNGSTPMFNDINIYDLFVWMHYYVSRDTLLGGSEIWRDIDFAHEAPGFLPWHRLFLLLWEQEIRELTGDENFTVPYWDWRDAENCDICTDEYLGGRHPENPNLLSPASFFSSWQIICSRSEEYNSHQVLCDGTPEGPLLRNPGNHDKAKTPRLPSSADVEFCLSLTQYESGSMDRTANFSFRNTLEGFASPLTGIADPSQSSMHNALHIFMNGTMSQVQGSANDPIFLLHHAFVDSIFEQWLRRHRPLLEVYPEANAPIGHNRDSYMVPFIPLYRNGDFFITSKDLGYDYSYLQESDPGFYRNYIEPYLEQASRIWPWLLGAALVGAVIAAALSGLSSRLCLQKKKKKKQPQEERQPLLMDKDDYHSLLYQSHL
Kind of assay: Tyrosinase enzyme activity inhibition in treated B16-F10 cells (L-DOPA). The assay is classed as cell-based. Particulars: 72 hours. As to the method: The ability of the skin treatment compounds and plant extracts to inhibit tyrosinase enzyme activity was evaluated. Tyrosinase enzyme is involved in melanin production and thus inhibition of tyrosinase may suppress melanin production, which may result in lightening of skin color and/or inhibition of further darkening of skin color. Arbutin is a conventional plant-derived compound used in skin lightening treatments and was therefore selected for use as a positive control. B16-F10 cells were trypsinized using Trypsin-EDTA and cell density was determined. The cell slurry was diluted to a concentration of 18,000 cells per milliliter (mL) in a growth media containing RPMI 1640 supplemented with fetal bovine serum. […] Arbutin was evaluated at concentrations of 0 (untreated), 25, 125, and 250 μg/mL. […] The UV absorbance of each well was determined using a plate reader with the primary wave length set to 475 nm. Tyrosinase inhibition was determined using the UV absorbance at 475 nm according to the following equation: % Inh=(Max signal−Compound signal)/(Max signal−Min signal)×100 Where “% Inh” is the percent inhibition of tyrosinase, the “Max signal” is the UV absorption for cells treated with L-DOPA, and the “Min signal” is the UV absorption of cells not treated with L-DOPA.

Setting [4] is: B16-F10 cells, 72 hours, 0.01 to 100 ug/mL, CellTiter-Glo.

Converted amounts (≈) assume the structure as drawn. “And” between values parts separate entries of the source, which are not always exact repeats. Identical values can stand only once. “Also recorded” adds a separate entry of the source. Like-named read-outs stand apart in the source and are kept apart here. Marks after values point to notes of the source that are not given here. Some results are limits rather than exact numbers.

Turning to `CN[C@@H](C)[C@H]1[C@H](O)C[C@@]2(C)[C@@H]3CC[C@H]4C(C)(C)[C@@H](NC)CC[C@@]45C[C@@]35CC[C@]12C` [Cyclovirobuxine D], in the assay on B16-F10 cells [1] (setting [4]), the “IC50 cellular toxicity, skin treatment compound/plant extract” value was above 100 µg/mL. The “% Melanin Synthesis Inhibition, skin treatment compound/plant extract” value with B16-F10 cells [2] is listed as 53.2%. In addition, the “% Melanin Elimination, skin treatment compound/plant extract” value with B16-F10 cells [3] was 92.4%.
As for `Oc1ccc(O)cc1` [Hydroquinone, reference compound], the “IC50 cellular toxicity, Hydroquinone IC50 (corresponding positive control)” value in the assay on B16-F10 cells [1] (B16-F10 cells, 72 hours, hydroquinone positive control run with the substance of the same line) is “(7.0) μg/mL; also recorded: (4.2) μg/mL; also recorded: (4.1) μg/mL”. Also, in the assay on B16-F10 cells [3] (hydroquinone 100 μg/mL), the “% Melanin Elimination (hydroquinone control)” value is on record as 70.6%.
Consider `COc1cc2c3c(c1OC)-c1ccccc1C[C@H]3N(C)CC2` [Nuciferine], for which the IC50 in the assay with B16-F10 cells [1] (B16-F10, 72 h) was 62.2 µg/mL (≈ 211 µM). In the assay on B16-F10 cells [2] (Mus musculus, read-out: % Melanin Synthesis Inhibition, skin treatment compound/plant extract), the inhibition at 100 µg/mL turned out to be 104%. The “% Melanin Elimination, skin treatment compound/plant extract” value in the assay on B16-F10 cells [3] is 34.1%.
Consider `CC1=C2C[C@H]3[C@@H](CC(=O)[C@H]4C[C@@H](O)CC[C@@]43C)[C@@H]2CC[C@]12O[C@@H]1C[C@H](C)CN[C@H]1[C@H]2C` [Peimisine], for which the “IC50 cellular toxicity, skin treatment compound/plant extract” value with B16-F10 cells [1] (setting [4]) is above 50 µg/mL. Further, the “% Melanin Synthesis Inhibition, skin treatment compound/plant extract” value in the assay with B16-F10 cells [2] was found to be 62.1%. Also, the “% Melanin Elimination, skin treatment compound/plant extract” value with B16-F10 cells [3] turned out to be 23.8%.
As to `C/C=C1/[C@H](O[C@@H]2O[C@H](CO)[C@@H](O)[C@H](O)[C@H]2O)OC=C(C(=O)OC)[C@H]1CC(=O)OCCc1ccc(O)c(O)c1` [Oleuropein], the IC50 in the assay with B16-F10 cells [1] (setting [4]) worked out at 90.3 µg/mL (≈ 167 µM). Also, in the assay on B16-F10 cells [3], the “% Melanin Elimination, skin treatment compound/plant extract” value was 37.0%.
With `O=C(O)CCCC[C@@H]1CCSS1` (racemic) [Lipoic acid], in the assay with B16-F10 cells [1] (setting [4]), the “IC50 cellular toxicity, skin treatment compound/plant extract” value is above 100 µg/mL. Besides, the “% Melanin Synthesis Inhibition, skin treatment compound/plant extract” value with B16-F10 cells [2] is reported as 30.3** %. Moreover, the “% Tyrosinase Inhibition, skin treatment compound/plant extract” value at tyrosinase enzyme (100 μg/mL, average of two wells) was determined as 98.6%. Also, the “% Melanin Elimination, skin treatment compound/plant extract” value in the assay on B16-F10 cells [3] is recorded as 65.7%.
For the molecule `OC[C@H]1O[C@@H](Oc2ccc(O)cc2)[C@H](O)[C@@H](O)[C@@H]1O` [Arbutin], the “% Tyrosinase Inhibition (Arbutin)” value at tyrosinase enzyme (arbutin 125 μg/mL, control of the same line) was 38.3% and 52.8%.
